The record followed here is ChEMBL document CHEMBL4476867, “Hydroxy formamide derivatives and their use” (2016).

Bounds are passed on as bounds.

For one assay, the target named is T1, Tolloid-like protein 2 (Homo sapiens, UniProt Q9Y6L7).
T1 sequence (Q9Y6L7 whole entry): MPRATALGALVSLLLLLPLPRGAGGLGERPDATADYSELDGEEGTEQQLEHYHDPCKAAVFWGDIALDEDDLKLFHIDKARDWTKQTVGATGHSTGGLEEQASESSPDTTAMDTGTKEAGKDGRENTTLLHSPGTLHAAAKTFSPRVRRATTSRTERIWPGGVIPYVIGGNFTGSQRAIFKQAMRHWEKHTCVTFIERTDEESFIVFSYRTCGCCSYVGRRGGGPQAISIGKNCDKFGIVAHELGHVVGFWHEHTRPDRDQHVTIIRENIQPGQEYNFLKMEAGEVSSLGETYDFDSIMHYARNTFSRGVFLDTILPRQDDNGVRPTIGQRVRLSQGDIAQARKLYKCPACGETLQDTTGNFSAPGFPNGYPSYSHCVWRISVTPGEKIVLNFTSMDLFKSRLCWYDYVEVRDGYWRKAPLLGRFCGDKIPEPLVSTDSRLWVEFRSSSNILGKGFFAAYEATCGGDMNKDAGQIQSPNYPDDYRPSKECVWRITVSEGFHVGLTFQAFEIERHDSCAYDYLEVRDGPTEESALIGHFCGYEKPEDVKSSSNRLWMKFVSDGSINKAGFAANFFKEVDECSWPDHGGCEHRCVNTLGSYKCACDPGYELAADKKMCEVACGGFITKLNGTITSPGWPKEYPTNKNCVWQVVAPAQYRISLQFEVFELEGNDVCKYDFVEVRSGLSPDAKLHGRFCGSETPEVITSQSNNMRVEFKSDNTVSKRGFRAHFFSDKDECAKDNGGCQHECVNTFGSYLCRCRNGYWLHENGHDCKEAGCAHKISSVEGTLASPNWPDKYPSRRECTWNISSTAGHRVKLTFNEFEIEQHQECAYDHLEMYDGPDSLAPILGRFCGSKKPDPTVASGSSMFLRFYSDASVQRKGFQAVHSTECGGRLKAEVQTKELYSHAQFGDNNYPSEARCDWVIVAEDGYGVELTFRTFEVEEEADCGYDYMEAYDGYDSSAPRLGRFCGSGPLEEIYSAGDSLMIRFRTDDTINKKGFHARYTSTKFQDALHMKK
As to the kind of experiment: Inhibition of C-terminal Avi-6x-His epitope tagged and N-terminal human RAGE signal sequence tagged recombinant human TLL2 (26 to 1015 amino acids) expressed in CHOE1A cells incubated for 60 mins with promyostatin peptide substrate by FRET based assay. The class given is cell-based.

Assay [1] concerns the target T2, Bone morphogenetic protein 1 (Homo sapiens, UniProt P13497).
T2 sequence (P13497 whole entry): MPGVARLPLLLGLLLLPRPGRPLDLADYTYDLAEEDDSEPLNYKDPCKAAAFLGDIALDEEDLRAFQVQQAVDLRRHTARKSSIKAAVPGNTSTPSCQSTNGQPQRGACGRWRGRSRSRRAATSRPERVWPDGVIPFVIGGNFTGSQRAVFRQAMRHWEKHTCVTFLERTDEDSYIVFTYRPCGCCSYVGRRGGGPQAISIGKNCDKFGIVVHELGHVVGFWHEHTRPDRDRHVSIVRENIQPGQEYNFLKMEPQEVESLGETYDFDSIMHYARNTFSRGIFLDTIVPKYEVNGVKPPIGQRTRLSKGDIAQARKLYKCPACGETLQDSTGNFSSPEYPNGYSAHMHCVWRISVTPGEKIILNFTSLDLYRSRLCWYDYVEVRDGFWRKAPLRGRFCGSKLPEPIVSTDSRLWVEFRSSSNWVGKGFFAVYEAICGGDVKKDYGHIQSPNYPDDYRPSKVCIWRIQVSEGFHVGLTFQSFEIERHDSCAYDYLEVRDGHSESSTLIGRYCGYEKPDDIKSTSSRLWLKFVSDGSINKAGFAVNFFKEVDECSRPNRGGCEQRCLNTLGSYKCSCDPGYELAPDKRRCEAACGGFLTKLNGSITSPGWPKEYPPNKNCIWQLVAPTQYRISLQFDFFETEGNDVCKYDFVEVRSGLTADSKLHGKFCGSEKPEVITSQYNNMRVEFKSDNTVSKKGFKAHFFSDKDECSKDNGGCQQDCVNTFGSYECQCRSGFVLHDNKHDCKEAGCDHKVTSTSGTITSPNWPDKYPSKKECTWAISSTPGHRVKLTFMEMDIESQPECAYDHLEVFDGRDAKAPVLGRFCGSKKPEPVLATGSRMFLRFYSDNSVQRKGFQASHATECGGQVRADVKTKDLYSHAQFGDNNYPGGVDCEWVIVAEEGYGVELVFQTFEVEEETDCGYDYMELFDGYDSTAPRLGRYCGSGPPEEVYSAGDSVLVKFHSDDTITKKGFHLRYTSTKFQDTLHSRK
As to the kind of experiment: Inhibition of C-terminal FLAG-6x-His epitope tagged and N-terminal human RAGE signal sequence tagged human BMP1 (23 to 721 amino acids) expressed in CHO-E1 cells pre-incubated for 10 mins before promyostatin peptide substrate addition and measured after 30 mins using 50 nM BMP1 by FRET based assay. The class given is cell-based.

The target of assay [2] is T2, Bone morphogenetic protein 1. As to the kind of experiment: Inhibition of C-terminal FLAG-6x-His epitope tagged and N-terminal human RAGE signal sequence tagged human BMP1 (23 to 721 amino acids) expressed in CHO-E1 cells pre-incubated for 10 mins before promyostatin peptide substrate addition and measured after 60 mins using 0.5 nM BMP1 by FRET based assay. Type of assay: cell-based.

A short description of assay [3]: Reduction in PICP levels in human cardiac fibroblasts incubated for 24 to 48 hrs by ELISA. Type of assay: functional. In outline:
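Human cardiac fibroblasts (passage 6 or below) were seeded at 10,000 to 15,000 cells per well in 96-well plates. The next day they were treated in ficoll crowding EMEM with 100 μM ascorbic acid and under 0.3% DMSO, for 24 to 48 hr at 37° C. Procollagen I C-terminal propeptide in the medium was measured with a Quidel ELISA. IC50 came from fitting levels relative to untreated controls to a log(inhibitor)-response equation in GraphPad Prism.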
On the technique in general: An ELISA detects its analyte on a solid surface through an enzyme-linked reagent.

The target in another assay is Tolloid-like protein 1 (Homo sapiens, UniProt O43897, I156V/N221S/V284A). As to the kind of experiment: Inhibition of recombinant human TLL1 I156V/N221S/V284A mutant expressed in CHOE1A cells pre-incubated for 10 mins before promyostatin peptide substrate addition and measured after 60 mins by FRET based assay. The class given is cell-based.
Tolloid-like protein 1, sequence (O43897 148-1013 I156V/N221S/V284A limits assumed): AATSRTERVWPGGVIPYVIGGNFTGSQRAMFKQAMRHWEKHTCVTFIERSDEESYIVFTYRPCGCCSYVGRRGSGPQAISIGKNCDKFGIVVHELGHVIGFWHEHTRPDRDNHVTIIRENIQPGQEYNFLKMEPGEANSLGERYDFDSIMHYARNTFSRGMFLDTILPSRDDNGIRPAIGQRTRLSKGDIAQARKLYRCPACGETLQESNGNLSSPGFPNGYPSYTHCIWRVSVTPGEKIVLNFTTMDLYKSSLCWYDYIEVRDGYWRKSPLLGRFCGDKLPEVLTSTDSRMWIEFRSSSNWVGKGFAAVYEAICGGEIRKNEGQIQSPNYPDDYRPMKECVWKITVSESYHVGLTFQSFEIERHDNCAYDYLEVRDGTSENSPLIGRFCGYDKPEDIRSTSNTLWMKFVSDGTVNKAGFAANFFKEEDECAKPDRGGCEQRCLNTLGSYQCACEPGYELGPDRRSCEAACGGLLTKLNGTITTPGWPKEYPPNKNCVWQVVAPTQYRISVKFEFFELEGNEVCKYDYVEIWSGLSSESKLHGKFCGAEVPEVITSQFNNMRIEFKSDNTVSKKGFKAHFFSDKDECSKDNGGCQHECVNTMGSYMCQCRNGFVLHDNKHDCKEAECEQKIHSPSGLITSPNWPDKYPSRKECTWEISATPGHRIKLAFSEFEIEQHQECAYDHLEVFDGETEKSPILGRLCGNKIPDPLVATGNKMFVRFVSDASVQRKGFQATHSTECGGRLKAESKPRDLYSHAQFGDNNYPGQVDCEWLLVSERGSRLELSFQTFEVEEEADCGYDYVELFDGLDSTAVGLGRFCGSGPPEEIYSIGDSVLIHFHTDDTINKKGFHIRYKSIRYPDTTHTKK

The term IC50 denotes the midpoint of a concentration-inhibition curve. On to `CCCCC[C@@H](C(=O)NCNC(=O)c1ccc(-c2cc(OCC)cc(P(=O)(OC)OC)c2)o1)[C@@H](CC)N(O)C=O`, for which the half-inhibitory concentration (IC50) was under 794 nM at Tolloid-like protein 2; under 200 nM in assay [1]; under 126 nM in assay [2]; under 3980 nM in assay [3]; under 398 nM at Tolloid-like protein 1.
As to `CCOc1cc(-c2ccc(C(=O)NCNC(=O)[C@H](CCc3ccc4ccccc4c3)[C@@H](CC)N(O)C=O)o2)ccc1C(=O)N[C@@H](CC(=O)O)C(=O)O`, the IC50 on Tolloid-like protein 2 was under 794 nM; in assay [1], under 200 nM; in assay [2], under 126 nM; in assay [3], under 3980 nM; on Tolloid-like protein 1, under 398 nM.
On to `CCCCC[C@@H](C(=O)NCNC(=O)c1ccc(-c2cc(OCC)cc(C(=O)N[C@@H](CCC(=O)O)C(=O)OC(C)(C)C)c2)o1)[C@@H](CC)N(O)C=O`, for which the IC50 was under 794 nM at Tolloid-like protein 2; under 200 nM in assay [1]; under 126 nM in assay [2]; under 3980 nM in assay [3]; under 398 nM on Tolloid-like protein 1.
The matching figures for `CCCCC[C@H](CN(O)C=O)C(=O)NCNC(=O)c1ccc(-c2cccc(OC(F)F)c2)o1`: under 794 nM, under 200 nM, under 126 nM, under 3980 nM and under 398 nM.
Taken in the same sequence, the figures for `CCCCC[C@H](CN(O)C=O)C(=O)NCNC(=O)c1ccc(-c2cccc(C(=O)O)c2)o1` were under 794 nM, under 200 nM, under 126 nM, under 3980 nM and under 398 nM.
Consider `CCCCC[C@H](CN(O)C=O)C(=O)NCNC(=O)c1ccc(-c2cc(OC)cc(C(=O)NCCN)c2)o1`, for which the IC50 on Tolloid-like protein 2 was under 794 nM; in assay [1], under 200 nM; in assay [2] it was under 126 nM; in assay [3] it was under 3980 nM; on Tolloid-like protein 1 it was under 398 nM.
The matching figures for `CCCCC[C@H](CN(O)C=O)C(=O)NCNC(=O)c1ccc(-c2ccc(F)c(C(=O)OC)c2)o1`: under 794 nM, under 200 nM, under 126 nM, under 3980 nM and under 398 nM.
On to `CCOc1cc(C(=O)O)c(O)c(-c2ccc(C(=O)NCNC(=O)[C@H](CCc3ccccc3)[C@@H](CC)N(O)C=O)o2)c1`, for which the IC50 was under 794 nM on Tolloid-like protein 2; under 200 nM in assay [1]; under 126 nM in assay [2]; under 3980 nM in assay [3]; under 398 nM on Tolloid-like protein 1.
The matching figures for `CCCCC[C@@H](C(=O)NCNC(=O)c1ccc(-c2cc(OCC)cc(C(=O)N[C@@H](CCC(=O)OC)C(=O)OC)c2)o1)[C@@H](CC)N(O)C=O`: under 794 nM, under 200 nM, under 126 nM, under 3980 nM and under 398 nM.
Take `CCCCC[C@@H](C(=O)NCNC(=O)c1ccc(-c2ccc(C(=O)N[C@@H](CCC(=O)O)C(=O)O)cc2)o1)[C@@H](CC)N(O)C=O`: the IC50 at Tolloid-like protein 2 was under 794 nM; in assay [1] it was under 200 nM; in assay [2], under 126 nM; in assay [3], under 3980 nM; at Tolloid-like protein 1, under 398 nM.
In the case of `CCCCC[C@@H](C(=O)NCNC(=O)c1ccc(-c2cc(CC(=O)O)cc(OCC)c2)o1)[C@@H](CC)N(O)C=O`, the IC50 in assay [1] is under 200 nM; in assay [2] it was under 126 nM; in assay [3], under 3980 nM.
For `CCCCC[C@H](CN(O)C=O)C(=O)NCNC(=O)c1ccc(-c2cccc(OC(C)C)c2)o1`, the IC50 is under 200 nM in assay [1], under 126 nM in assay [2], under 3980 nM in assay [3] and under 398 nM on Tolloid-like protein 1.
Regarding `CCOc1cc(-c2ccc(C(=O)NCNC(=O)[C@H](CCc3ccc4ccccc4c3)[C@@H](CC)N(O)C=O)o2)cc(P(=O)(O)O)c1`, the IC50 in assay [1] is under 200 nM; in assay [2], under 126 nM; in assay [3] it was under 3980 nM.
Consider `CCCCC[C@H](CN(O)C=O)C(=O)NCNC(=O)c1ccc(-c2cncc(OC)c2)o1`, for which the IC50 is under 794 nM on Tolloid-like protein 2, under 200 nM in assay [1], under 126 nM in assay [2] and under 398 nM on Tolloid-like protein 1.
Taken in the same sequence, the figures for `CCCCC[C@H](CN(O)C=O)C(=O)NCNC(=O)c1ccc(-c2ccc(C#N)cc2)o1` were under 794 nM, under 200 nM, under 126 nM and under 398 nM.
The matching figures for `CCCCC[C@@H](C(=O)NCNC(=O)c1ccc(-c2cncc(C(=O)O)c2)o1)[C@@H](CC)N(O)C=O`: under 794 nM, under 200 nM, under 126 nM and under 398 nM.
For `CCCCC[C@H](CN(O)C=O)C(=O)NCNC(=O)c1ccc(-c2cccc(OC)n2)o1`, the IC50 is under 794 nM at Tolloid-like protein 2, under 200 nM in assay [1], under 126 nM in assay [2] and under 398 nM on Tolloid-like protein 1.
Taken in the same sequence, the figures for `O=CN(O)C[C@@H](CCc1ccccc1)C(=O)NCNC(=O)c1ccc(-c2ccccc2)o1` were under 794 nM, under 200 nM, under 126 nM and under 398 nM.
With `CCCCC[C@H](CN(O)C=O)C(=O)NCNC(=O)c1ccc(-c2cc(OCC)cc(C(=O)NCCN)c2)o1`, the IC50 is under 200 nM in assay [1], under 126 nM in assay [2] and under 3980 nM in assay [3].
As for `CCCCC[C@H](CN(O)C=O)C(=O)NCNC(=O)c1ccc(-c2ccc3cn(C)nc3c2)o1`, the IC50 at Tolloid-like protein 2 is under 794 nM; in assay [1], under 200 nM; in assay [2] it was under 126 nM; at Tolloid-like protein 1, under 398 nM.
As to `CCCCC[C@H](CN(O)C=O)C(=O)NCNC(=O)c1ccc(-c2ccc3c(c2)S(=O)(=O)NC3)o1`, the IC50 is under 794 nM on Tolloid-like protein 2, under 200 nM in assay [1], under 126 nM in assay [2] and under 398 nM at Tolloid-like protein 1.
For the compound `CCCCC[C@@H](C(=O)NCNC(=O)c1ccc(-c2cc(OCC)cc(C(=O)NCC(=O)O)c2)o1)[C@@H](CC)N(O)C=O`, the IC50 in assay [1] was under 200 nM; in assay [2] it was under 126 nM; in assay [3], under 3980 nM.
